Article PMC11058275, “Targeted potent antimicrobial and antitumor oxygen-heterocyclic-based pyran analogues: synthesis and computational studies” (Scientific Reports, 2024)
≈ marks a conversion by molar mass, not a printed value. Where two headings read alike, the source gives them in different places.

Legend:
[1] = system: Staphylococcus aureus (ATCC 6538); experiment: Agar diffusion antibacterial screening (inhibition zone); assay type: cell-based; conditions: ATCC6538, S. aureus, 1 mg/mL, Mueller–Hinton agar, read-out: Diameter of inhibition zone
Method: (§1) The antibacterial activity of β-enamionitriles (4a-q) was screened using Mueller–Hinton agar medium for bacteria in an agar diffusion methodology. Ciprofloxacin (1 mg/mL) was the reference antibiotic drug used in the analysis of collections that included four gram-positive species of multi drug resistant pathogenic bacteria: Staphylococcus aureus (MRSA) (ATCC 6539), Staphylococcus aureus (ATCC 6538), Bacillus cereus (ATCC 10987), Bacillus subtilis (ATCC 6633), and two gram-negative species of multi drug resistant pathogenic bacteria Klebsiella pneumonia (ATCC 13883) and Escherichia coli (ATCC 8739). […] Using a 1 mg/mL concentration of compounds (4a-q), the minimum zone of inhibition (IZ, the area around the antimicrobial agent where bacterial growth is prevented) was established in mm ± standard deviation beyond the well diameter (6 mm). […] The synthetic compound's inhibitory effects on evaluation against these organisms are depicted in Fig. 9 and Table 1.
(§2) Compound 4a-q was screened for its in vitro antimicrobial activities against pathogenic bacteria species using the standard antibiotics Ampicillin, Gentamycin and Ketoconazole as reference drugs as reported previously. The minimum inhibitory concentration (MIC) was determined as previously reported. The antimicrobial activities were performed at the Regional Centre for Mycology & Biotechnology (RCMP), Al-Azhar University.

[2] = system: Escherichia coli (ATCC 8739); experiment: as above; assay type: cell-based; conditions: ATCC8739, E. coli, 1 mg/mL, Mueller–Hinton agar, read-out: Diameter of inhibition zone
Method: as §1, §2

[3] = system: Bacillus cereus (ATCC 10987); experiment: as above; assay type: cell-based; conditions: ATCC10987, B. cereus, 1 mg/mL, Mueller–Hinton agar, read-out: Diameter of inhibition zone
Method: as §1, §2

[4] = system: Staphylococcus aureus (MRSA) (ATCC 6539); experiment: as above; assay type: cell-based; conditions: read-out: Diameter of inhibition zone
Method: as §1, §2

[5] = system: Bacillus subtilis (ATCC 6633); experiment: as above; assay type: cell-based; conditions: ATCC6633, B. subtilis, 1 mg/mL, Mueller–Hinton agar, read-out: Diameter of inhibition zone
Method: as §1, §2

[6] = system: Klebsiella pneumonia (ATCC 13883); experiment: as above; assay type: cell-based; conditions: Klebsiella pneumoniae, ATCC13883, K. pneumonia, 1 mg/mL, Mueller–Hinton agar, read-out: Diameter of inhibition zone
Method: as §1, §2

MCF-7 (breast cancer) [7] = conditions: values marked b, read-out: IC50 Cancerotoxicity MCF-7; cited from earlier work
[8] = system: HCT-116 (human colon cancer); conditions: values marked b, read-out: IC50 Cancerotoxicity HCT-116; cited from earlier work
[9] = system: HepG-2 (hepatocellular carcinoma); conditions: values marked b, read-out: IC50 Cancerotoxicity HepG-2; cited from earlier work
[10] = system: HFL-1 (human foetal lung); experiment: MTT cytotoxicity assay, normal cells; assay type: cell-based; conditions: HFL1, HFL-1 normal cells, MTT, 24-h incubation, mean ± standard error, read-out: IC50 Normotoxicity HFL-1
Description: (§4) The antiproliferative activity of the newly synthesized 1H-benzo[f]chromenes derivatives (4a-q) was examined in three human cancer cell lines: MCF-7 (breast cancer), HCT-116 (human colon cancer), and HepG-2 (hepatocellular carcinoma), as well as the two normal cell lines, HFL-1 (human foetal lung) and WI-38 (human diploid fibroblasts), using the 3-(4,5-dimethylthiazol-2-yl)-2,5-diphenyl tetrazolium bromide (MTT) colorimetric assay[56].
(§5) Compounds 4a-q was initially evaluated for in vitro antitumor activity against three different human cell lines: MCF-7, HCT-116 and HepG-2. In-vitro cytotoxicity evaluation was performed at the Regional Center for Mycology & Biotechnology (RCMP), Al-Azhar University under different concentrations (50, 25, 12.5, 6.25, 3.125, 1.56 and 0 µg/mL); vinblastine and doxorubicin are used as reference cytotoxic compounds.

[11] = system: WI-38 (human diploid fibroblasts); experiment: MTT cytotoxicity assay, normal cells; assay type: cell-based; conditions: WI-38 normal cells, MTT, 24-h incubation, mean ± standard error, read-out: IC50 Normotoxicity WI-38
Description: as §4, §5

MCF-7 (breast cancer) [12] = experiment: MTT cytotoxicity assay; conditions: Homo sapiens
Description: as §4, §5

[13] = system: HCT-116 (human colon cancer); experiment: MTT cytotoxicity assay; assay type: cell-based
Description: as §4, §5

[14] = system: HepG-2 (hepatocellular carcinoma); experiment: MTT cytotoxicity assay; assay type: cell-based; conditions: Homo sapiens
Description: as §4, §5

Klebsiella pneumonia = experiment: MIC, Mueller Hinton broth resazurin assay; assay type: cell-based; conditions: Klebsiella pneumoniae, 24 h, MH broth resazurin
Description: (§3) The minimum inhibitory concentration, or MIC, is the lowest concentration needed to stop bacterial growth. When evaluating how well antimicrobial agents work against various bacterial strains, MIC values are crucial. […] The right dosage of the antimicrobial agent to be used in the treatment of bacterial infections can also be determined with the aid of the MIC value. Table 2 and Fig. 10 show the minimum inhibitory concentration (MIC) of the active compound 4 g against various bacterial strains.
as §2

Escherichia coli = experiment: MIC, Mueller Hinton broth resazurin assay; assay type: cell-based; conditions: 24 h, MH broth resazurin
Description: as §3, §2

Bacillus subtilis = experiment: MIC, Mueller Hinton broth resazurin assay; assay type: cell-based; conditions: 24 h, MH broth resazurin
Description: as §3, §2

[15] = system: Staphylococcus aureus (MRSA); experiment: MIC, Mueller Hinton broth resazurin assay; assay type: cell-based; conditions: 24 h, MH broth resazurin
Description: as §3, §2

Staphylococcus aureus = experiment: MIC, Mueller Hinton broth resazurin assay; assay type: cell-based; conditions: 24 h, MH broth resazurin
Description: as §3, §2

Bacillus cereus = experiment: MIC, Mueller Hinton broth resazurin assay; assay type: cell-based; conditions: 24 h, MH broth resazurin
Description: as §3, §2

[16] = MCF7, 24 h, read-out: IC50 Cancerotoxicity MCF-7
[17] = MTT, 24-h incubation, mean ± standard error, read-out: IC50 Cancerotoxicity HCT-116
[18] = HepG2, MTT, 24-h incubation, mean ± standard error, read-out: IC50 Cancerotoxicity HepG-2

COc1ccc2c3c(ccc2c1)OC(N)=C(C#N)C3c1ccc(F)cc1 (stereo not shown) [Compound 4a, 3-Amino-1-(4-fluorophenyl)-8-methoxy-1H-benzo[f]chromene-2-carbonitrile]
zone of inhibition at 1000 µg/mL [1]: 0 mm | zone of inhibition at 1000 µg/mL [2]: 11 mm | zone of inhibition at 1000 µg/mL [3]: 13 mm | zone of inhibition at 1000 µg/mL [4]: 14 mm | zone of inhibition at 1000 µg/mL [5]: 0 mm | zone of inhibition at 1000 µg/mL [6]: 14 mm | IC50 (MCF-7 (breast cancer) [7]): 12.7 ± 0.05 µM | melting point: 255 to 256 °C | IC50 [8]: 14.2 ± 0.01 µM | IC50 [9]: 1.5 ± 0.01 µM

COc1ccc2c3c(ccc2c1)OC(N)=C(C#N)C3c1ccc(Cl)cc1 (stereo not shown) [Compound 4d, 3-Amino-1-(4-chlorophenyl)-8-methoxy-1H-benzo[f]chromene-2-carbonitrile]
IC50 [10]: 164.4 ± 1.1 µM | IC50 [11]: 165.5 ± 1.3 µM | zone of inhibition at 1000 µg/mL [1]: 0 mm | zone of inhibition at 1000 µg/mL [2]: 0 mm | zone of inhibition at 1000 µg/mL [3]: 15 mm | zone of inhibition at 1000 µg/mL [4]: 12 mm | zone of inhibition at 1000 µg/mL [5]: 0 mm | zone of inhibition at 1000 µg/mL [6]: 12 mm | IC50 (MCF-7 (breast cancer) [7]): 8.6 ± 0.29 µM | melting point: 246 to 247 °C | IC50 [8]: 6.9 ± 0.97 µM | IC50 [9]: 0.8 ± 0.08 µM

COc1ccc2c3c(ccc2c1)OC(N)=C(C#N)C3c1ccc(Br)cc1 (stereo not shown) [Compound 4e, 3-Amino-1-(4-bromophenyl)-8-methoxy-1H-benzo[f]chromene-2-carbonitrile]
IC50 [10]: 189.9 ± 1.1 µM | IC50 [11]: 165.3 ± 1.2 µM | zone of inhibition at 1000 µg/mL [1]: 0 mm | zone of inhibition at 1000 µg/mL [2]: 0 mm | zone of inhibition at 1000 µg/mL [3]: 14 mm | zone of inhibition at 1000 µg/mL [4]: 12 mm | zone of inhibition at 1000 µg/mL [5]: 0 mm | zone of inhibition at 1000 µg/mL [6]: 10 mm | IC50 (MCF-7 (breast cancer) [7]): 4.9 ± 0.25 µM | melting point: 261 to 262 °C | IC50 [8]: 2.2 ± 0.58 µM | IC50 [9]: 1.7 ± 0.13 µM

COc1ccc2c3c(ccc2c1)OC(N)=C(C#N)C3c1ccc(F)cc1F (stereo not shown) [Compound 4g, 3-Amino-1-(2,4-difluorophenyl)-8-methoxy-1H-benzo[f]chromene-2-carbonitrile]
IC50 [10]: 179.4 ± 0.1 µM | IC50 [11]: 190.1 ± 0.3 µM | zone of inhibition at 1000 µg/mL [1]: 23 mm | zone of inhibition at 1000 µg/mL [2]: 14 mm | zone of inhibition at 1000 µg/mL [3]: 20 mm | zone of inhibition at 1000 µg/mL [4]: 17 mm | zone of inhibition at 1000 µg/mL [5]: 21 mm | zone of inhibition at 1000 µg/mL [6]: 16 mm | melting point: 300 to 301 °C | IC50 (MCF-7 (breast cancer) [12]; [16]): 2.7 ± 0.23 µM | IC50 [13, 17]: 6 ± 0.11 µM | IC50 [14, 18]: 1.9 ± 0.5 µM | MIC (Klebsiella pneumonia): 500 µg/mL (≈ 1370 µM) | MIC (Escherichia coli): 250 µg/mL (≈ 686 µM) | MIC (Bacillus subtilis): 1000 µg/mL (≈ 2740 µM) | MIC [15]: 500 µg/mL (≈ 1370 µM) | MIC (Staphylococcus aureus): 1000 µg/mL (≈ 2740 µM) | MIC (Bacillus cereus): 1000 µg/mL (≈ 2740 µM)

COc1ccc2c3c(ccc2c1)OC(N)=C(C#N)C3c1cc(Br)cc(Br)c1OC (stereo not shown) [Compound 4n, 3-amino-1-(3,5-dibromo-2-methoxyphenyl)-8-methoxy-1H-benzo[f]chromene-2-carbonitrile]
IC50 [10]: 139.5 ± 0.1 µM | IC50 [11]: 135.4 ± 0.3 µM | zone of inhibition at 1000 µg/mL [1]: 0 mm | zone of inhibition at 1000 µg/mL [2]: 0 mm | zone of inhibition at 1000 µg/mL [3]: 13 mm | zone of inhibition at 1000 µg/mL [4]: 14 mm | zone of inhibition at 1000 µg/mL [5]: 0 mm | zone of inhibition at 1000 µg/mL [6]: 11 mm | melting point: 241 to 242 °C | IC50 (MCF-7 (breast cancer) [12]; [16]): 1.4 ± 0.05 µM | IC50 (MCF-7 (breast cancer) [12]; MCF7, read-out: IC50 MCF-7): 0.7 ± 0.05 µg/mL | IC50 [13, 17]: 1.2 ± 0.06 µM | IC50 ([13]; given in µg/mL, read-out: IC50 HCT-116): 0.6 ± 0.06 µg/mL | IC50 [14, 18]: 5.6 ± 0.21 µM | IC50 ([14]; HepG2, given in µg/mL, read-out: IC50 HepG-2): 2.9 ± 0.21 µg/mL
